The target in one series is T1, human FAAH (Homo sapiens, UniProt O00519).
T1 construct: T84 frozen pellets were homogenized in FAAH assay buffer; endogenous in cells; host or cells: T84 human colorectal carcinoma cells (ATCC CCL-248), homogenate/membranes
T1 sequence (O00519 1-579): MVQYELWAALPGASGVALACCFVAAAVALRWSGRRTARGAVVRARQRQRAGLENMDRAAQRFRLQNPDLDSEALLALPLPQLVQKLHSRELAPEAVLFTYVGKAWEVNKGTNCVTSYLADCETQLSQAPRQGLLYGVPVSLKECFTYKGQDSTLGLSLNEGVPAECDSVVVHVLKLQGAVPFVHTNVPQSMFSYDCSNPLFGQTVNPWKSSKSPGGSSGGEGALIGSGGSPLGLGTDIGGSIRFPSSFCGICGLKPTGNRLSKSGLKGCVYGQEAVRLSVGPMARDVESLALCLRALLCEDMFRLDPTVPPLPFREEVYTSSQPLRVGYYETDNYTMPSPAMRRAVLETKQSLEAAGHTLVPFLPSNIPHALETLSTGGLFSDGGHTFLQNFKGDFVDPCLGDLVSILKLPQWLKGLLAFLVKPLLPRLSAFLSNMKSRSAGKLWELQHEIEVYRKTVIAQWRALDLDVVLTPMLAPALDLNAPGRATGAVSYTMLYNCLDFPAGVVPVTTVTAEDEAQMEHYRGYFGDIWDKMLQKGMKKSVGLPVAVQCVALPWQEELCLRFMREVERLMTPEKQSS
The experiment in a line: FAAH charcoal filter-plate assay with 3H-anandamide in T84 membranes. It is filed as biochemical. The conditions noted are these: for IC50 values (in words): product inhibition.

The target in series [1] is T2, FAAH (Mus musculus, UniProt O08914).
T2 construct: it abolished anandamide hydrolysis in N18 mouse neuroblastoma cells; host or cells: N18 mouse neuroblastoma cells
T2 sequence (O08914 1-579): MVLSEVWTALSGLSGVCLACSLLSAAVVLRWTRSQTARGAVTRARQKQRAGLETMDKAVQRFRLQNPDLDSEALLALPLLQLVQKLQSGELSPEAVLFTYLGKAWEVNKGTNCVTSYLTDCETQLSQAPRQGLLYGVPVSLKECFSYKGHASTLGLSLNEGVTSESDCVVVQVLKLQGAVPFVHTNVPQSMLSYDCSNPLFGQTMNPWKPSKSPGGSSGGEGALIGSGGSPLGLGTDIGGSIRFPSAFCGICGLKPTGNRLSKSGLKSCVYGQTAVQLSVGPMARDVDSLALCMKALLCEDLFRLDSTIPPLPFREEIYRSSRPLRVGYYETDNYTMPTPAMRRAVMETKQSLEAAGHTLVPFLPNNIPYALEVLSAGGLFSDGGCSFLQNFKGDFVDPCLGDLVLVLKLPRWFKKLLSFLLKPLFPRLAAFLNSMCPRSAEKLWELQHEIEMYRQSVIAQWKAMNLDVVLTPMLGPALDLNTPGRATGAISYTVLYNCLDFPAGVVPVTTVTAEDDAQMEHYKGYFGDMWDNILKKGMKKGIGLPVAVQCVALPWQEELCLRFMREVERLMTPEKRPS
The conditions noted are these: cited from earlier work.

In series [2] the target is T3, FAAH (Rattus norvegicus, UniProt P97612).
T3 sequence (P97612 1-579): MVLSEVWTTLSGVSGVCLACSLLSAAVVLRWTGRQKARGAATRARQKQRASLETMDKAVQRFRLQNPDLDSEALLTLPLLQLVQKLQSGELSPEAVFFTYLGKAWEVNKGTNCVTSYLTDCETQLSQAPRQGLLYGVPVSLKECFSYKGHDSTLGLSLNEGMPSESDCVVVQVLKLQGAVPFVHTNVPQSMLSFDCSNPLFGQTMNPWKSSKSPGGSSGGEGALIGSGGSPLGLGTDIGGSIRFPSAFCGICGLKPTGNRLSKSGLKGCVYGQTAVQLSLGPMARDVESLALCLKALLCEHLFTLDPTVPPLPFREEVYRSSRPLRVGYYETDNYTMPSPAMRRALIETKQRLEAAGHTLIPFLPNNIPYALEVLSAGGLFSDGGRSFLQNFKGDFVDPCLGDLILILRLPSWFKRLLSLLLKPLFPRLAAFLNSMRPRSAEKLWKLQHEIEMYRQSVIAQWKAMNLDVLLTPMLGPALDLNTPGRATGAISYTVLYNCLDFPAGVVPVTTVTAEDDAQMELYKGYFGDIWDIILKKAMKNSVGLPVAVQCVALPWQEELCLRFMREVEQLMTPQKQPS
The conditions noted are these: cited from earlier work.

Series [3] has as its target FAAH (Homo sapiens, UniProt O00519). The conditions noted are these: human brain; Maccarrone et al. 1999; cited from earlier work.
Series [4] addresses T3, FAAH. More on the design: other: literature data. Particulars: read-out: Literature (ref) IC50; cited from earlier work.
[5] abbreviates: T84 membranes, room temperature 60 min, average ± S.E. of 2-5 experiments, each in triplicate, read-out: IC50.

Values joined by “and” are separate entries in the source; they are usually repeats but may differ in a detail not shown here. Equal entries are not always repeated. Where two headings read alike, the source gives them in different places.

In the case of `CCCCC/C=C\C/C=C\C/C=C\C/C=C\CCCC(=O)NCCO` [anandamide, N-arachidonoylethanolamine], the Michaelis-Menten constant (Km) on human FAAH (read-out: Km of hydrolysis by FAAH) was 1.1 ± 0.17 µM; on FAAH [1] it was 9 µM; at FAAH [2], 12.7 µM; at FAAH [3], 2 µM. Also, the “activity of FAAH” value on FAAH [1] was “abolished”.

Take `CCCCCCCC/C=C\CCCCCCCCC(=O)C(F)(F)F` [Oleyl trifluoromethyl ketone, oleyl trifluoromethyl ketone]: at FAAH [4], the 50% inhibitory concentration (IC50) was 39 nM and 24 to 41 nM.

For `CCCCC/C=C\C/C=C\C/C=C\C/C=C\CCCC(=O)O` [Arachidonic acid], at human FAAH (T84 membranes), the “IC50 values (in words)” value is listed as “low micromolar range”. Moreover, on human FAAH (setting [5]), the half-maximal inhibitory concentration (IC50) was found to be 931 ± 255 nM.

For `CCCCCCCC/C=C\CCCCCCCC(=O)O` [Oleic acid], on human FAAH (T84 membranes), the “IC50 values (in words)” value is reported as “low micromolar range”. The 50% inhibitory concentration (IC50) on human FAAH (setting [5]) stood at 1940 ± 401 nM.

Turning to `O=S(=O)(F)Cc1ccccc1` [Phenylmethylsulfonyl fluoride], the figures for the concentration for half-maximal inhibition (IC50) against human FAAH (IC50) and on FAAH [4] were 16000 nM and 1200 to 69000 nM, respectively. The “anandamide hydrolysis in N18 mouse neuroblastoma cells” value at FAAH [1] (at a concentration of 100 μM, Maurelli et al. 1995) is “abolished”. Besides, the “inhibition of the hydrolysis of rat brain microsomal anandamide” value at FAAH [2] (at 25 μM, Desarnaud et al. 1995) is recorded as 48%.
